From US12404295B2, “(Hetero)aryl-methyl-thio-beta-D-galactopyranoside derivatives” (Idorsia Pharmaceuticals Ltd, priority 2019, dated 2025)
Like-named read-outs stand apart in the source and are kept apart here.

Tests used:
human Gal-3 (hGal-3) = human Gal-3 (hGal-3) (Homo sapiens (Human), UniProt P17931); assay: competitive binding assay: biotinylated hGal-3 binding to microplate-adsorbed asialofetuin (ASF)
Method in brief: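 Serial DMSO dilutions of each compound; binding incubation of 3 hours at 4 °C with cold-buffer washes; detection using 80 ng/mL streptavidin-peroxidase for 1 hour, then ABTS. Multiple determinations were averaged to give the IC50.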

human Gal-1 (hGal-1) = human Gal-1 (hGal-1) (Homo sapiens (Human), UniProt P09382); assay: competitive binding assay: biotinylated hGal-1 binding to microplate-adsorbed asialofetuin (ASF); settings: Table 15; read-out: IC50 (Galectin-1 inhibition)
Method in brief: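 Spectrophotometric competition readout: after compound and biotinylated hGal-1 (300-1000 ng/mL) sit 3 h at 4° C on adsorbed asialofetuin, streptavidin-peroxidase (1 h, 4° C) and ABTS reveal residual binding. Reported IC50 values are means of repeat runs.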

[1] = Gal-3 inhibition, binding of biotinylated hGal-3 to ASF, mean values, read-out: IC50

human Gal-3 (hGal-3), sequence (P17931 whole entry): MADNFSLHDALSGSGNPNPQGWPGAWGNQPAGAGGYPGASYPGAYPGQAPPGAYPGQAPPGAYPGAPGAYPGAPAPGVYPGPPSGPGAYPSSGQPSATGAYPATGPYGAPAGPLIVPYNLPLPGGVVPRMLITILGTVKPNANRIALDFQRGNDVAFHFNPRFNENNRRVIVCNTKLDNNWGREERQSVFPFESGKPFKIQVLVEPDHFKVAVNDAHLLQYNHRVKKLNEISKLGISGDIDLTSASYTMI
human Gal-1 (hGal-1), sequence (P09382 whole entry): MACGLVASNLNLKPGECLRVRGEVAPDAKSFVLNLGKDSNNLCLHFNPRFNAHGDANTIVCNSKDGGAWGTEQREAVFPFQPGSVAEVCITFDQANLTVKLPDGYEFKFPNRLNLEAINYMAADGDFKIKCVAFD

Row | SMILES | IC50 (human Gal-3 (hGal-3); [1]) | IC50 (human Gal-1 (hGal-1)) | IC50 (human Gal-3 (hGal-3); Table 10, 2-OMe-Gal inhibitors, read-out: IC50 (Gal-3 inhibition)) | IC50 (human Gal-3 (hGal-3); Table 9, 2-OMe-Gal inhibitors, read-out: IC50 (Gal-3 inhibition))
1 | O=C(NC1CC1)N1CCC(O)([C@@H](S[C@@H]2O[C@H](CO)[C@H](O)[C@H](n3cc(-c4cc(F)c(F)c(F)c4)nn3)[C@H]2O)c2ccccc2C(F)(F)F)CC1 [Example 2.49.112S., N-Cyclopropyl-4-((S)-(((2S,3R,4S,5R,6R)-3,5-dihydroxy-6-(hydroxymethyl)-4-(4-(3,4,5-trifluorophenyl)-1H-1,2,3-triazol-1-yl)tetrahydro-2H-pyran-2-yl)thio)(2-(trifluoromethyl)phenyl)methyl)-4-hydroxypiperidine-1-carboxamide] | 3060 nM | 12.1 µM | – | –
2 | COC(=O)N1CCC(O)([C@H](S[C@@H]2O[C@H](CO)[C@H](O)[C@H](n3cc(-c4cc(F)c(F)c(F)c4)nn3)[C@H]2O)c2ccccc2C(F)(F)F)CC1 [Example 2.50.112R., Methyl 4-((R)-(((2S,3R,4S,5R,6R)-3,5-dihydroxy-6-(hydroxymethyl)-4-(4-(3,4,5-trifluorophenyl)-1H-1,2,3-triazol-1-yl)tetrahydro-2H-pyran-2-yl)thio)(2-(trifluoromethyl)phenyl)methyl)-4-hydroxypiperidine-1-carboxylate] | 80 nM | 0.37 µM | – | –
3 | COC(=O)N1CCC(O)([C@@H](S[C@@H]2O[C@H](CO)[C@H](O)[C@H](n3cc(-c4cc(F)c(F)c(F)c4)nn3)[C@H]2O)c2ccccc2C(F)(F)F)CC1 [Example 2.50.112S., Methyl 4-((S)-(((2S,3R,4S,5R,6R)-3,5-dihydroxy-6-(hydroxymethyl)-4-(4-(3,4,5-trifluorophenyl)-1H-1,2,3-triazol-1-yl)tetrahydro-2H-pyran-2-yl)thio)(2-(trifluoromethyl)phenyl)methyl)-4-hydroxypiperidine-1-carboxylate] | 7700 nM | 15.8 µM | – | –
4 | CO[C@@H]1[C@@H](n2cc(-c3cc(F)c(F)c(F)c3)nn2)[C@@H](O)[C@@H](CO)O[C@H]1SC(c1ccccc1C(F)(F)F)C1(O)CCN(S(=O)(=O)C2CC2)CC1 (stereo partly drawn) [Example 2.51.112.I., 1-(Cyclopropylsulfonyl)-4-((((2S,3R,4S,5R,6R)-5-hydroxy-6-(hydroxymethyl)-3-methoxy-4-(4-(3,4,5-trifluorophenyl)-1H-1,2,3-triazol-1-yl)tetrahydro-2H-pyran-2-yl)thio)(2-(trifluoromethyl)phenyl)methyl)piperidin-4-ol] | 80 nM | 0.35 µM | – | –
5 | OC[C@H]1O[C@@H](SC(c2ccccc2)C2CC2)[C@H](O)[C@@H](n2cc(-c3cc(F)c(F)c(F)c3)nn2)[C@H]1O (stereo partly drawn) [Example 2.54.100., (2S,3R,4S,5R,6R)-2-((Cyclopropyl(phenyl)methyl)thio)-6-(hydroxymethyl)-4-(4-(3,4,5-trifluorophenyl)-1H-1,2,3-triazol-1-yl)tetrahydro-2H-pyran-3,5-diol, reference compound] | 3210 nM | 61.2 µM | – | –
6 | CCC(O)C(S[C@@H]1O[C@H](CO)[C@H](O)[C@H](n2cc(-c3cc(F)c(F)c(F)c3)nn2)[C@H]1O)c1ccccc1C(F)(F)F (stereo partly drawn) [Example 2.60.112., (2S,3R,4S,5R,6R)-2-((2-Hydroxy-1-(2-(trifluoromethyl)phenyl)butyl)thio)-6-(hydroxymethyl)-4-(4-(3,4,5-trifluorophenyl)-1H-1,2,3-triazol-1-yl)tetrahydro-2H-pyran-3,5-diol] | 230 nM | 3.5 µM | – | –
7 | OC[C@H]1O[C@@H](SC(c2ccccc2C(F)(F)F)C(O)c2ccccc2)[C@H](O)[C@@H](n2cc(-c3cc(F)c(F)c(F)c3)nn2)[C@H]1O (stereo partly drawn) [Example 2.61.112., (2S,3R,4S,5R,6R)-2-((2-Hydroxy-2-phenyl-1-(2-(trifluoromethyl)phenyl)ethyl)thio)-6-(hydroxymethyl)-4-(4-(3,4,5-trifluorophenyl)-1H-1,2,3-triazol-1-yl)tetrahydro-2H-pyran-3,5-diol] | 1100 nM | 7.88 µM | – | –
8 | Cc1ccccc1C(O)C(S[C@@H]1O[C@H](CO)[C@H](O)[C@H](n2cc(-c3cc(F)c(F)c(F)c3)nn2)[C@H]1O)c1ccccc1C(F)(F)F (stereo partly drawn) [Example 2.62.112., (2S,3R,4S,5R,6R)-2-((2-Hydroxy-2-(o-tolyl)-1-(2-(trifluoromethyl)phenyl)ethyl)thio)-6-(hydroxymethyl)-4-(4-(3,4,5-trifluorophenyl)-1H-1,2,3-triazol-1-yl)tetrahydro-2H-pyran-3,5-diol] | 1220 nM | 11.7 µM | – | –
9 | Cc1conc1C(S[C@@H]1O[C@H](CO)[C@H](O)[C@H](n2cc(-c3cc(F)c(F)c(F)c3)nn2)[C@H]1O)C1(O)CCS(=O)(=O)CC1 (stereo partly drawn) [Example 2.66.120., 4-((((2S,3R,4S,5R,6R)-3,5-Dihydroxy-6-(hydroxymethyl)-4-(4-(3,4,5-trifluorophenyl)-1H-1,2,3-triazol-1-yl)tetrahydro-2H-pyran-2-yl)thio)(4-methylisoxazol-3-yl)methyl)-4-hydroxytetrahydro-2H-thiopyran 1,1-dioxide] | 140 nM | 0.33 µM | – | –
10 | Cc1conc1[C@@H](S[C@@H]1O[C@H](CO)[C@H](O)[C@H](n2cc(-c3cc(F)c(F)c(F)c3)nn2)[C@H]1O)C1(O)CCS(=O)(=O)CC1 [Example 2.66.120R., 4-((R)-(((2S,3R,4S,5R,6R)-3,5-Dihydroxy-6-(hydroxymethyl)-4-(4-(3,4,5-trifluorophenyl)-1H-1,2,3-triazol-1-yl)tetrahydro-2H-pyran-2-yl)thio)(4-methylisoxazol-3-yl)methyl)-4-hydroxytetrahydro-2H-thiopyran 1,1-dioxide] | 30 nM | 0.07 µM | – | –
11 | CO[C@@H]1[C@@H](n2cc(-c3cc(F)c(F)c(F)c3)nn2)[C@@H](O)[C@@H](CO)O[C@H]1S[C@H](c1nocc1C)C1(O)CCS(=O)(=O)CC1 [Example 2.66.120R.I., 4-Hydroxy-4-((R)-(((2S,3R,4S,5R,6R)-5-hydroxy-6-(hydroxymethyl)-3-methoxy-4-(4-(3,4,5-trifluorophenyl)-1H-1,2,3-triazol-1-yl)tetrahydro-2H-pyran-2-yl)thio)(4-methylisoxazol-3-yl)methyl)tetrahydro-2H-thiopyran 1,1-dioxide] | – | 0.58 µM | 70 nM | –
12 | Cc1conc1[C@H](S[C@@H]1O[C@H](CO)[C@H](O)[C@H](n2cc(-c3cc(F)c(F)c(F)c3)nn2)[C@H]1O)C1(O)CCS(=O)(=O)CC1 [Example 2.66.120S., 4-((S)-(((2S,3R,4S,5R,6R)-3,5-Dihydroxy-6-(hydroxymethyl)-4-(4-(3,4,5-trifluorophenyl)-1H-1,2,3-triazol-1-yl)tetrahydro-2H-pyran-2-yl)thio)(4-methylisoxazol-3-yl)methyl)-4-hydroxytetrahydro-2H-thiopyran 1,1-dioxide] | 4570 nM | 24.1 µM | – | –
13 | Cc1cccnc1[C@@H](S[C@@H]1O[C@H](CO)[C@H](O)[C@H](n2cc(-c3cc(F)c(F)c(F)c3)nn2)[C@H]1O)C1(O)CCS(=O)(=O)CC1 [Example 2.66.126R., 4-((R)-(((2S,3R,4S,5R,6R)-3,5-Dihydroxy-6-(hydroxymethyl)-4-(4-(3,4,5-trifluorophenyl)-1H-1,2,3-triazol-1-yl)tetrahydro-2H-pyran-2-yl)thio)(3-methylpyridin-2-yl)methyl)-4-hydroxytetrahydro-2H-thiopyran 1,1-dioxide] | 20 nM | 0.17 µM | – | –
14 | CO[C@@H]1[C@@H](n2cc(-c3cc(F)c(F)c(F)c3)nn2)[C@@H](O)[C@@H](CO)O[C@H]1S[C@H](c1ncccc1C)C1(O)CCS(=O)(=O)CC1 [Example 2.66.126R.I., 4-Hydroxy-4-((R)-(((2S,3R,4S,5R,6R)-5-hydroxy-6-(hydroxymethyl)-3-methoxy-4-(4-(3,4,5-trifluorophenyl)-1H-1,2,3-triazol-1-yl)tetrahydro-2H-pyran-2-yl)thio)(3-methylpyridin-2-yl)methyl)tetrahydro-2H-thiopyran 1,1-dioxide] | – | 0.09 µM | – | 60 nM
15 | Cc1cccnc1[C@H](S[C@@H]1O[C@H](CO)[C@H](O)[C@H](n2cc(-c3cc(F)c(F)c(F)c3)nn2)[C@H]1O)C1(O)CCS(=O)(=O)CC1 [Example 2.66.126S., 4-((S)-(((2S,3R,4S,5R,6R)-3,5-Dihydroxy-6-(hydroxymethyl)-4-(4-(3,4,5-trifluorophenyl)-1H-1,2,3-triazol-1-yl)tetrahydro-2H-pyran-2-yl)thio)(3-methylpyridin-2-yl)methyl)-4-hydroxytetrahydro-2H-thiopyran 1,1-dioxide] | 2000 nM | 16.5 µM | – | –
16 | Cc1c(F)cc(-c2cn([C@H]3[C@@H](O)[C@@H](CO)O[C@@H](SC(c4ccccc4C(F)(F)F)C(C)(C)O)[C@@H]3O)nn2)cc1F (stereo partly drawn) [Example 3.31.112., (2S,3R,4S,5R,6R)-4-(4-(3,5-Difluoro-4-methylphenyl)-1H-1,2,3-triazol-1-yl)-2-((2-hydroxy-2-methyl-1-(2-(trifluoromethyl)phenyl)propyl)thio)-6-(hydroxymethyl)tetrahydro-2H-pyran-3,5-diol] | 210 nM | 4.9 µM | – | –
17 | Cc1c(F)cc(-c2cn([C@H]3[C@@H](O)[C@@H](CO)O[C@@H](S[C@H](c4ccccc4C(F)(F)F)C(C)(C)O)[C@@H]3O)nn2)cc1F [Example 3.31.112R., (2S,3R,4S,5R,6R)-4-(4-(3,5-Difluoro-4-methylphenyl)-1H-1,2,3-triazol-1-yl)-2-(((R)-2-hydroxy-2-methyl-1-(2-(trifluoromethyl)phenyl)propyl)thio)-6-(hydroxymethyl)tetrahydro-2H-pyran-3,5-diol] | 150 nM | 2.84 µM | – | –
